Results taken from patent US20260356819A1, “OXOISOINDOLINYL-SUBSTITUTED […] DERIVATIVE AND USE THEREOF” (GLUETACS THERAPEUTICS (SHANGHAI) CO., LTD., priority 2023, published 2026).

How the values were obtained:
Assay type in all cases: cell-based
Settings in all cases: compounds at 50 nM and 500 nM
WEE1 = molecular target: T1, WEE1 (Homo sapiens, UniProt P30291+Q96SW2); assay: Western blot degradation of WEE1 in hPBMCs (24 h)
T1 construct: The supernatant was aspirated as the extracted total cell protein; endogenous in cells; host or cells: human peripheral blood mononuclear cells (hPBMCs)
T1 sequence (P30291 whole entry): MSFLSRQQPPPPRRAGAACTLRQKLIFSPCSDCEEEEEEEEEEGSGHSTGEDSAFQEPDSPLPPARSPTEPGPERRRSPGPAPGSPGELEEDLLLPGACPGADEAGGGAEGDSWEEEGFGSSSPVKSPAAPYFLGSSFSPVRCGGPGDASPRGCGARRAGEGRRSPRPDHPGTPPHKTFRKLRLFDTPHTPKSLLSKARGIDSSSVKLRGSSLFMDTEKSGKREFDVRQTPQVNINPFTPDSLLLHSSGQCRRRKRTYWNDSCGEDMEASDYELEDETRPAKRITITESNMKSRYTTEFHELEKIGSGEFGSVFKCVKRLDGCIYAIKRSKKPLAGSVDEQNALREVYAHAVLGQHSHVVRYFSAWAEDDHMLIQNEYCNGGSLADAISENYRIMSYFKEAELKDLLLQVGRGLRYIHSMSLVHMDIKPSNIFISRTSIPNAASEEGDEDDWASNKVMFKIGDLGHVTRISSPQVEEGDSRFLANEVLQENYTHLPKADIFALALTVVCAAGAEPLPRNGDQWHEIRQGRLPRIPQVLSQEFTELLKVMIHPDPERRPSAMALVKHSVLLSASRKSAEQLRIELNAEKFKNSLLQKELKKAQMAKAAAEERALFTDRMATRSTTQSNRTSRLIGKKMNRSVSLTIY
T1 sequence (Q96SW2 whole entry): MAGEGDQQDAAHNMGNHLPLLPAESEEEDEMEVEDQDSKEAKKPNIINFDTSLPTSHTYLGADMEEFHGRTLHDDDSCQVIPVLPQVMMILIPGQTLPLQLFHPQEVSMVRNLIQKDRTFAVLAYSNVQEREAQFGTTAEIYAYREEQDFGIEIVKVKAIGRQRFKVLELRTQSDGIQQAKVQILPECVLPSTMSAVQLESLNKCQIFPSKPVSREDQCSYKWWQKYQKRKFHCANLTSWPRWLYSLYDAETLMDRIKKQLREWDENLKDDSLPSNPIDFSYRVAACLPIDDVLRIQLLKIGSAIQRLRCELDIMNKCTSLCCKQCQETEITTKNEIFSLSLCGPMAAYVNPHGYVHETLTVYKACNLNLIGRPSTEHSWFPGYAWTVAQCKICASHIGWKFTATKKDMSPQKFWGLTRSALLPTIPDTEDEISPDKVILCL
T1 sequence (Q16531 whole entry partner): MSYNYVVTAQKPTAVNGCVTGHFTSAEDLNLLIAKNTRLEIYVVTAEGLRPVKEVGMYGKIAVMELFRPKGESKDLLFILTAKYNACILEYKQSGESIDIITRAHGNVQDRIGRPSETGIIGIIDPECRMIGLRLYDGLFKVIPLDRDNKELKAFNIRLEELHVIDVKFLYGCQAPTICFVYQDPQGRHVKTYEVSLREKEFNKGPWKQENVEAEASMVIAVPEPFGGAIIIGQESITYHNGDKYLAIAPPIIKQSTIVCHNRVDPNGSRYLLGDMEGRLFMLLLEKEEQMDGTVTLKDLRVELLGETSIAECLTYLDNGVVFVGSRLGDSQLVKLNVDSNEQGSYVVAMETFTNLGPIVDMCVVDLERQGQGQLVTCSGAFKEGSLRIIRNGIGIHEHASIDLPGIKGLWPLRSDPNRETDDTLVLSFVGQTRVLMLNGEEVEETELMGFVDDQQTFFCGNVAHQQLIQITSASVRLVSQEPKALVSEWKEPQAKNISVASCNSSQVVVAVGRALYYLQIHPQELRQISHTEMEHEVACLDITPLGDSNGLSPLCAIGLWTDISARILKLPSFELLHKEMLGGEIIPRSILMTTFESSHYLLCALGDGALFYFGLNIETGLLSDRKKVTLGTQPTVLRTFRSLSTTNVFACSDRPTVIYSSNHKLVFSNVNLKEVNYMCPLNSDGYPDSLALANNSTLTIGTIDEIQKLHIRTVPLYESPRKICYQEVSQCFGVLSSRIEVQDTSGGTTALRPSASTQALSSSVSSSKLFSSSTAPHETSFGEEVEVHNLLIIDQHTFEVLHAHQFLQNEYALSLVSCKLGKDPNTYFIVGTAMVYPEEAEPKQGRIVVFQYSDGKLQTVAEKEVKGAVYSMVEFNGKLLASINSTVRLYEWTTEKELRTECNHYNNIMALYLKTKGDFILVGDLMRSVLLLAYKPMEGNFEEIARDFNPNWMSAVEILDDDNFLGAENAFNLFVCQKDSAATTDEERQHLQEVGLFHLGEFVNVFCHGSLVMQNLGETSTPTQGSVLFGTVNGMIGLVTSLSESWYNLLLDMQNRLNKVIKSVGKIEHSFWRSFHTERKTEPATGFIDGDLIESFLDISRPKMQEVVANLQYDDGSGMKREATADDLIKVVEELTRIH
Summary of the method: (§1)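 Degradation in primary human PBMCs after 24 h compound exposure at 50 and 500 nM. Western blot band intensities, normalised to an internal control protein, expressed as % protein remaining relative to DMSO.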

IKZF1 = molecular target: T2, IKZF1 (Homo sapiens, UniProt Q13422+Q96SW2); assay: Western blot degradation of IKZF1 in hPBMCs (24 h)
T2 construct: The supernatant was aspirated as the extracted total cell protein; endogenous in cells; host or cells: human peripheral blood mononuclear cells (hPBMCs)
Summary of the method: as §1

IKZF2 = molecular target: T3, IKZF2 (Homo sapiens, UniProt Q96SW2+Q9UKS7); assay: Western blot degradation of IKZF2 in hPBMCs (24 h)
T3 construct: The supernatant was aspirated as the extracted total cell protein; endogenous in cells; host or cells: human peripheral blood mononuclear cells (hPBMCs)
T3 sequence (Q9UKS7 whole entry): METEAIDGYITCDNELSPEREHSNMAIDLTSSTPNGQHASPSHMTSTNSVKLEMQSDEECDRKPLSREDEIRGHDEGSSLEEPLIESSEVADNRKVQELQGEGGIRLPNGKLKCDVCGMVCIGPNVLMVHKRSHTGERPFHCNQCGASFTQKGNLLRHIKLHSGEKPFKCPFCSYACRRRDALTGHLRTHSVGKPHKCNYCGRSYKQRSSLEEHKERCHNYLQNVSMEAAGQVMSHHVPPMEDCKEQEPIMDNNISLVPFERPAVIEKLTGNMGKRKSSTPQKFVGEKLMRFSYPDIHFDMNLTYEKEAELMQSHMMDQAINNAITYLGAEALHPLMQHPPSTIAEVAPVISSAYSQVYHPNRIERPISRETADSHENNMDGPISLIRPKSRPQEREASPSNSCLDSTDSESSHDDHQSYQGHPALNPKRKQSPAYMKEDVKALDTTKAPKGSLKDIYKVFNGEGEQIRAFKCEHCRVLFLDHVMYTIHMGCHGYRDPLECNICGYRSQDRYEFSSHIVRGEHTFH
T3 sequence (Q96SW2 whole entry): as the sequence (Q96SW2 whole entry) above
T3 sequence (Q16531 whole entry partner): as the sequence (Q16531 whole entry partner) above
Summary of the method: as §1

IKZF3 = molecular target: T4, IKZF3 (Homo sapiens, UniProt Q96SW2+Q9UKT9); assay: Western blot degradation of IKZF3 in hPBMCs (24 h)
T4 construct: The supernatant was aspirated as the extracted total cell protein; endogenous in cells; host or cells: human peripheral blood mononuclear cells (hPBMCs)
T4 sequence (Q9UKT9 whole entry): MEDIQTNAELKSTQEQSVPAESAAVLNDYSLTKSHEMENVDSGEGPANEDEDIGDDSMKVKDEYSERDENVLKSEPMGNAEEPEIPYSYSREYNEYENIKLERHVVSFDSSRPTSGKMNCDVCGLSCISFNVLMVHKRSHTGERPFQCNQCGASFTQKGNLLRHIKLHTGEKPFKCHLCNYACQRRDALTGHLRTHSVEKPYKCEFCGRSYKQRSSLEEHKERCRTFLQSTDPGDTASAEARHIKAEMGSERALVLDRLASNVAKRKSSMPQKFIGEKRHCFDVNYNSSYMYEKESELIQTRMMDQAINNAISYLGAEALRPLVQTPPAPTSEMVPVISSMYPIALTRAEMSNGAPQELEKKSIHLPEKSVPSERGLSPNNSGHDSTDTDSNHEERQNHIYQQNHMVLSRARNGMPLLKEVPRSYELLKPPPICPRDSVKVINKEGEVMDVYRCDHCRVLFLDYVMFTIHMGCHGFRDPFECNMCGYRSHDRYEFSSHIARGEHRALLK
T4 sequence (Q96SW2 whole entry): as the sequence (Q96SW2 whole entry) above
T4 sequence (Q16531 whole entry partner): as the sequence (Q16531 whole entry partner) above
Summary of the method: as §1

CK1α = molecular target: T5, CK1α (Homo sapiens, UniProt P48729+Q96SW2); assay: Western blot degradation of CK1α in hPBMCs (24 h)
T5 construct: The supernatant was aspirated as the extracted total cell protein; endogenous in cells; host or cells: human peripheral blood mononuclear cells (hPBMCs)
T5 sequence (P48729 whole entry): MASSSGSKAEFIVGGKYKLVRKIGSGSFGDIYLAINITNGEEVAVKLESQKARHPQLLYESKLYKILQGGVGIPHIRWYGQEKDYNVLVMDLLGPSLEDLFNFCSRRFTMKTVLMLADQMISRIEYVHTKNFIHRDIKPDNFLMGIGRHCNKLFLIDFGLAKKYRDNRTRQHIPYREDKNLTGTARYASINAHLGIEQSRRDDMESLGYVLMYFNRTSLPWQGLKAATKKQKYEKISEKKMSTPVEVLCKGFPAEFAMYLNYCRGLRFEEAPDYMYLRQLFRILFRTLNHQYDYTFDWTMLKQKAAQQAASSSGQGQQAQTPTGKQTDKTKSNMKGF
T5 sequence (Q96SW2 whole entry): as the sequence (Q96SW2 whole entry) above
T5 sequence (Q16531 whole entry partner): as the sequence (Q16531 whole entry partner) above
Summary of the method: as §1

GSPT1 = molecular target: T6, GSPT1 (Homo sapiens, UniProt P15170+Q96SW2); assay: Western blot degradation of GSPT1 in hPBMCs (24 h)
T6 construct: The supernatant was aspirated as the extracted total cell protein; endogenous in cells; host or cells: human peripheral blood mononuclear cells (hPBMCs)
T6 sequence (P15170 whole entry): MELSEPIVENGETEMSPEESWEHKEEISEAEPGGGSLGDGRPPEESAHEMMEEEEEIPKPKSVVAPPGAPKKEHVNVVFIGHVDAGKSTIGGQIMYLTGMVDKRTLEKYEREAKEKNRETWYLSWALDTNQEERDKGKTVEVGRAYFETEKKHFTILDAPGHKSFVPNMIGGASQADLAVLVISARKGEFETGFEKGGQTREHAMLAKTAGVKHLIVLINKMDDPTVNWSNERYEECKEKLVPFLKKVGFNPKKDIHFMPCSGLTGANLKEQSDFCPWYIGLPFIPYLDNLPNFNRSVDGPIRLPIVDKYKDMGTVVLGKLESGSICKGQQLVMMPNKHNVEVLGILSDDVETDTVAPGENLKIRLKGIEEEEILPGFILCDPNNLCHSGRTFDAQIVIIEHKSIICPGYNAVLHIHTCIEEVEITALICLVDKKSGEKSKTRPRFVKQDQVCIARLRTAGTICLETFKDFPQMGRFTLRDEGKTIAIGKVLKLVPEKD
T6 sequence (Q96SW2 whole entry): as the sequence (Q96SW2 whole entry) above
T6 sequence (Q16531 whole entry partner): as the sequence (Q16531 whole entry partner) above
Summary of the method: as §1

Row | Structure (SMILES) | WEE1 substrate protein remaining % (WEE1) | IKZF1 substrate protein remaining % (IKZF1) | IKZF2 substrate protein remaining % (IKZF2) | IKZF3 substrate protein remaining % (IKZF3) | CK1α substrate protein remaining % (CK1α) | GSPT1 substrate protein remaining % (GSPT1)
1 | O=C1CCN(N2C(=O)c3ccc(CN4CCN(c5ccccc5Br)CC4)cc3C2=O)C(=O)N1 [GT-06727, 5-((4-(2-bromophenyl)piperazin-1-yl)methyl)-2-(2,4-dioxotetrahydropyrimidin-1(2H)-yl)isoindoline-1,3-dione] | B (80%< substrate protein remaining % ≤100%) | B (80%< substrate protein remaining % ≤100%) | A (0% ≤ substrate protein remaining % ≤80%) | A (0% ≤ substrate protein remaining % ≤80%) | A (0% ≤ substrate protein remaining % ≤80%) | B (80%< substrate protein remaining % ≤100%)
2 | COc1ccc(N2CCN(Cc3ccc4c(c3)C(=O)N(N3CCC(=O)NC3=O)C4=O)CC2)cc1 [GT-06728, 2-(2,4-dioxotetrahydropyrimidin-1(2H)-yl)-5-((4-(4-methoxyphenyl)piperazin-1-yl)methyl)isoindoline-1,3-dione] | B (80%< substrate protein remaining % ≤100%) | B (80%< substrate protein remaining % ≤100%) | A (0% ≤ substrate protein remaining % ≤80%) | A (0% ≤ substrate protein remaining % ≤80%) | A (0% ≤ substrate protein remaining % ≤80%) | B (80%< substrate protein remaining % ≤100%)
3 | COc1ccc(N2CCN(Cc3ccc4c(c3)CN(N3CCC(=O)NC3=O)C4=O)CC2)cc1 [GT-06767, 1-(5-((4-(4-methoxyphenyl)piperazin-1-yl)methyl)-1-oxoisoindolin-2-yl)dihydropyrimidine-2,4(1H,3H)-dione] | A (0% ≤ substrate protein remaining % ≤80%) | A (0% ≤ substrate protein remaining % ≤80%) | A (0% ≤ substrate protein remaining % ≤80%) | A (0% ≤ substrate protein remaining % ≤80%) | A (0% ≤ substrate protein remaining % ≤80%) | A (0% ≤ substrate protein remaining % ≤80%)
4 | O=C1CCN(N2Cc3cc(CN4CCN(c5ccc(Br)cc5)CC4)ccc3C2=O)C(=O)N1 [GT-06768, 1-(5-((4-(4-bromophenyl)piperazin-1-yl)methyl)-1-oxoisoindolin-2-yl)dihydropyrimidine-2,4(1H,3H)-dione] | A (0% ≤ substrate protein remaining % ≤80%) | B (80%< substrate protein remaining % ≤100%) | B (80%< substrate protein remaining % ≤100%) | A (0% ≤ substrate protein remaining % ≤80%) | A (0% ≤ substrate protein remaining % ≤80%) | A (0% ≤ substrate protein remaining % ≤80%)
5 | Cc1ccccc1N1CCN(Cc2ccc3c(c2)CN(N2CCC(=O)NC2=O)C3=O)CC1 [GT-06769, 1-(1-oxo-5-((4-(o-tolyl)piperazin-1-yl)methyl)isoindolin-2-yl)dihydropyrimidine-2,4(1H,3H)-dione] | A (0% ≤ substrate protein remaining % ≤80%) | B (80%< substrate protein remaining % ≤100%) | A (0% ≤ substrate protein remaining % ≤80%) | A (0% ≤ substrate protein remaining % ≤80%) | A (0% ≤ substrate protein remaining % ≤80%) | A (0% ≤ substrate protein remaining % ≤80%)
6 | Cc1ccc(N2CCN(Cc3ccc4c(c3)CN(N3CCC(=O)NC3=O)C4=O)CC2)cc1 [GT-06771, 1-(1-oxo-5-((4-(p-tolyl)piperazin-1-yl)methyl)isoindolin-2-yl)dihydropyrimidine-2,4(1H,3H)-dione] | A (0% ≤ substrate protein remaining % ≤80%) | B (80%< substrate protein remaining % ≤100%) | A (0% ≤ substrate protein remaining % ≤80%) | A (0% ≤ substrate protein remaining % ≤80%) | A (0% ≤ substrate protein remaining % ≤80%) | A (0% ≤ substrate protein remaining % ≤80%)
7 | O=C1CCN(N2Cc3cc(CN4CCN(c5ccc(Cl)cc5Cl)CC4)ccc3C2=O)C(=O)N1 [GT-06772, 1-(5-((4-(2,4-dichlorophenyl)piperazin-1-yl)methyl)-1-oxoisoindolin-2-yl)dihydropyrimidine-2,4(1H,3H)-dione] | A (0% ≤ substrate protein remaining % ≤80%) | B (80%< substrate protein remaining % ≤100%) | A (0% ≤ substrate protein remaining % ≤80%) | A (0% ≤ substrate protein remaining % ≤80%) | A (0% ≤ substrate protein remaining % ≤80%) | A (0% ≤ substrate protein remaining % ≤80%)
8 | O=C1CCN(N2Cc3cc(CN4CCN(c5c(Cl)cccc5Cl)CC4)ccc3C2=O)C(=O)N1 [GT-06774, 1-(5-((4-(2,6-dichlorophenyl)piperazin-1-yl)methyl)-1-oxoisoindolin-2-yl)dihydropyrimidine-2,4(1H,3H)-dione] | B (80%< substrate protein remaining % ≤100%) | B (80%< substrate protein remaining % ≤100%) | A (0% ≤ substrate protein remaining % ≤80%) | A (0% ≤ substrate protein remaining % ≤80%) | A (0% ≤ substrate protein remaining % ≤80%) | A (0% ≤ substrate protein remaining % ≤80%)
9 | O=C1CCN(N2Cc3cc(CN4CCN(c5ccc(Cl)c(Cl)c5)CC4)ccc3C2=O)C(=O)N1 [GT-06775, 1-(5-((4-(3,4-dichlorophenyl)piperazin-1-yl)methyl)-1-oxoisoindolin-2-yl)dihydropyrimidine-2,4(1H,3H)-dione] | B (80%< substrate protein remaining % ≤100%) | B (80%< substrate protein remaining % ≤100%) | A (0% ≤ substrate protein remaining % ≤80%) | A (0% ≤ substrate protein remaining % ≤80%) | A (0% ≤ substrate protein remaining % ≤80%) | A (0% ≤ substrate protein remaining % ≤80%)
10 | O=C1CCN(N2Cc3cc(CN4CCN(c5ccc(F)cc5F)CC4)ccc3C2=O)C(=O)N1 [GT-06778, 1-(5-((4-(2,4-difluorophenyl)piperazin-1-yl)methyl)-1-oxoisoindolin-2-yl)dihydropyrimidine-2,4(1H,3H)-dione] | B (80%< substrate protein remaining % ≤100%) | B (80%< substrate protein remaining % ≤100%) | B (80%< substrate protein remaining % ≤100%) | B (80%< substrate protein remaining % ≤100%) | A (0% ≤ substrate protein remaining % ≤80%) | A (0% ≤ substrate protein remaining % ≤80%)
